Reference: patent publication US5041557A, “Furan derivatives” (Laboratorios Vinas S.A., priority 1989, dated 1991)

Legend:
[1] = tested on: histamine induced gastric acid secretion; test: "In vivo" histamine induced gastric acid secretion model in the rat; settings: Wistar rats, intraperitoneal
Protocol: (§1) As stated above, the formula I compounds have shown a potent antiulcer activity. Thus the inhibition of histamine induced gastric secretion "in vivo" in rats, after intraperitoneal administration of these zinc-furan compounds at dose levels of 0.5; 1; 2 and 4 mg/kg reaches pH recovery levels, increasing with the dose, of 100%.
This activity was measured in Wistar rats having a body weight of 240±20 g. An endovenous perfusion of a histamine solution stimulated the gastric secretion producing a drop in the intragastric pH. LV-208 was thereafter administered intraperitoneally and the increase in the gastric pH that this produced was evaluated. An ED50 of 0.8 mg/kg and recovery of 100% at a dose of 4 mg/kg was obtained by a dose-response curve.

[2] = tested on: ethanol induced ulcers (gastric mucous membrane); test: Necrosing agent model: ethanol induced ulcers in the rat; assay type: in vivo; settings: for mm lesion (lesion index, mm of ulcer) / % inhibition (ulcer inhibition percentage versus control): ethanol, LV-208 100 mg/kg, Rn equimolar dose; for mm lesion (lesion index, mm of ulcer): mean ± error of the mean, control 82.0 ± 10.1, LV-208: p < 0.001 versus control, p < 0.05 versus Rn (t test); for % inhibition (ulcer inhibition percentage versus control): versus control group; for protection against the ethanol induced aggression: rat, equimolar doses of LV-208 and Rn, result in words
Protocol: as §1
Particularly, the antiulcer activity of the compound LV-208 has been studied with evaluation of the secretion inhibiting and gastric mucous membrane protecting activity in the rat.
The activity of LV-208 was compared with the activity of Rn at equimolar doses using the necrosing agent model, ethanol in this case, described by Robert et al. (Gastroenterology, 77: 433, 1979), versus a control group administered excipient.
The following Table gives the lesion indexes (in mm of ulcer) of the three groups studied, as well as the ulcer inhibition percentages of the treated groups versus the control group (mean values±the error of the mean).

| Structure (SMILES) | recovery (gastric pH) ([1]; dose of 4 mg/kg) [%] | ED50 (increase in gastric pH, inhibition of histamine induced gastric acid secretion) ([1]; endovenous histamine perfusion, dose-response curve) [mg/kg] | mm lesion (lesion index, mm of ulcer) [2] [mm] | % inhibition (ulcer inhibition percentage versus control) [2] [%] | protection against the ethanol induced aggression [2] |
| --- | --- | --- | --- | --- | --- |
| CNC(=C[N+](=O)[O-])NCCSCc1ccc(CN(C)C)o1.[Cl][Zn][Cl] [LV-208] | 100 | 0.8 | 4.8 ± 1.8 | 94.1 | practically complete protection |
| CNC(=C[N+](=O)[O-])NCCSCc1ccc(CN(C)C)o1 [Rn, N,N-dimethyl-5-(2-(1-methylamino-2-nitrovinylamino)ethylthiomethyl)furfurylamine, reference compound] |  |  | 40.6 ± 15.0 | 50.5 | discreet protection |
